Patent US9447086B2, “6-amino acid heteroaryldihydropyrimidines for the treatment and prophylaxis of hepatitis B virus infection” (priority 2012, dated 2016)
≈ marks a conversion by molar mass, not a printed value.

What was measured:
[1] = Lyophilisation solubility assay (Lysa); assay type: physicochemical; conditions: phosphate buffer, pH 6.5, aqueous buffer, thermodynamic from solid
Method in brief: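 Duplicate samples from 10 mM DMSO stocks are dried, redissolved in 0.05 M phosphate buffer pH 6.5, stirred 1 h, shaken 2 h and left overnight. Filtrate and its 1/10 dilution are quantified by direct UV or HPLC-UV, giving solubility in μg/mL.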

HBV [2] = experiment: Anti-HBV activity in vitro in HepG2.2.15 cells (extracellular HBV DNA by qPCR); assay type: cell-based, Hepatitis B virus; conditions: Hepatitis B virus; HepG2.2.15 cells; in-house data; read-out: EC50
Method in brief: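 HepG2.2.15 cells, which constitutively produce HBV, were seeded overnight and then treated for 5 days with half-log serially diluted compounds at 0.5% final DMSO. Extracellular HBV DNA in culture supernatant was extracted and quantified by qPCR.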

HepDE19 cells = experiment: Cytotoxicity (CC50) in HepDE19 cells, CCK-8 cell viability; assay type: cell-based
Method in brief: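 HBV-transfected HepG2-derived HepDE19 cells grown in DMEM-F12 with 10% FBS and G418. Viability read five days after treatment by CCK-8, 2 h at 37 °C, absorbance at 450 and 630 nm.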

HBV [3] = experiment: Selectivity index (CC50 value/EC50 value); assay type: cell-based, Hepatitis B virus
Method in brief: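 Ratio of CC50 to EC50, measuring antiviral activity against HBV relative to cytotoxicity in vitro; higher values indicate greater separation between viral inhibition and cell death.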

[4] = Metabolic stability study in human microsome; assay type: in vitro ADME
Method in brief: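 Human liver microsomes (0.5 mg/mL) with 1 μM compound in 100 mM phosphate pH 7.4 at 37 °C, started with 1 mM NADPH or an NADPH-regenerating system. Samples taken at 0, 3, 6, 9, 15 and 30 min, quenched in methanol. Parent remaining measured by LC-MS/MS; no-cofactor controls included.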

SMILES | solubility thermodynamic [1] | EC50 (HBV [2]) | CC50 (HepDE19 cells) | Selectivity index (CC50/EC50) (HBV [3]) | Human Hepatic Clearance [4]
CC(C)OC(=O)C1=C(CN2CCOC[C@H]2C(=O)O)NC(c2nccs2)=N[C@H]1c1ccc(F)cc1Cl [Example 98, (S)-4-[(R)-6-(2-Chloro-4-fluoro-phenyl)-5-isopropoxycarbonyl-2-thiazol-2-yl-3,6-dihydro-pyrimidin-4-ylmethyl]-morpholine-3-carboxylic acid] | > 650 µg/mL | 17 nM | 72000 nM | 4224 | 0 mL/min/kg
COC(=O)C1=C(CN2CCOC[C@H]2C(=O)O)NC(c2nc(C(F)(F)F)cs2)=N[C@H]1c1ccc(F)cc1Cl [Example 95, (S)-4-[(R)-6-(2-Chloro-4-fluoro-phenyl)-5-methoxycarbonyl-2-(4-trifluoromethyl-thiazol-2-yl)-3,6-dihydro-pyrimidin-4-ylmethyl]-morpholine-3-carboxylic acid] | > 705 µg/mL | 2.5 nM | > 100000 nM | 40000 | 3.04 mL/min/kg
COC(=O)C1=C(CN2CCOC[C@@]2(C)C(=O)O)NC(c2nccs2)=N[C@H]1c1ccc(F)cc1Cl [Example 121, (S)-4-(((R)-6-(2-Chloro-4-fluorophenyl)-5-(methoxycarbonyl)-2-(thiazol-2-yl)-3,6-dihydropyrimidin-4-yl)methyl)-3-methylmorpholine-3-carboxylic acid] | 600 µg/mL (≈ 1180 µM) | 20 nM | > 100000 nM | >5000 | 1.42 mL/min/kg
CCOC(=O)C1=C(CN2CCOC[C@H]2C(=O)O)NC(c2nccs2)=N[C@H]1c1cccc(F)c1Br [Example 66, (S)-4-[(R)-6-(2-Bromo-3-fluoro-phenyl)-5-ethoxycarbonyl-2-thiazol-2-yl-3,6-dihydro-pyrimidin-4-ylmethyl]-morpholine-3-carboxylic acid] | > 669 µg/mL | 0.7 nM | 95000 nM | 135714 | 1.64 mL/min/kg
CCOC(=O)C1=C(CN2CCOC[C@H]2C(=O)O)NC(c2nccs2)=N[C@H]1c1ccc(F)cc1Cl [Example 31, (S)-4-[(R)-6-(2-Chloro-4-fluoro-phenyl)-5-ethoxycarbonyl-2-thiazol-2-yl-3,6-dihydro-pyrimidin-4-ylmethyl]-morpholine-3-carboxylic acid] | 630 µg/mL (≈ 1240 µM) | 2 nM | > 100000 nM | >50000 | 4.68 mL/min/kg
COC(=O)C1=C(CN2CCOC[C@H]2C(=O)O)NC(c2ncoc2C)=N[C@H]1c1ccc(F)cc1Cl [Example 68, (S)-4-[(R)-6-(2-Chloro-4-fluoro-phenyl)-5-methoxycarbonyl-2-(5-methyl-oxazol-4-yl)-3,6-dihydro-pyrimidin-4-ylmethyl]-morpholine-3-carboxylic acid] | > 627 µg/mL | 14 nM | > 100000 nM | >7407 | 0.23 mL/min/kg
CCOC(=O)C1=C(CN2CCOC[C@H]2C(=O)O)NC(c2nccs2)=N[C@H]1c1ccc(F)c(F)c1C [Example 96, (S)-4-[(S)-6-(3,4-Difluoro-2-methyl-phenyl)-5-ethoxycarbonyl-2-thiazol-2-yl-3,6-dihydro-pyrimidin-4-ylmethyl]-morpholine-3-carboxylic acid] | > 628 µg/mL | 0.6 nM | 97000 nM | 161667 | 4.8 mL/min/kg
COC(=O)C1=C(CN2CCOC[C@H]2C(=O)O)NC(c2nccs2)=N[C@H]1c1ccc(F)c(F)c1Cl [Example 73, (S)-4-[(R)-6-(2-Chloro-3,4-difluoro-phenyl)-5-methoxycarbonyl-2-thiazol-2-yl-3,6-dihydro-pyrimidin-4-ylmethyl]-morpholine-3-carboxylic acid] | > 656 µg/mL | 1.2 nM | > 100000 nM | >83333 | 0 mL/min/kg
